≈ marks a conversion by molar mass, not a printed value. Read-outs that look alike come from different tables or passages of the source.
Legend:
[1] = Metabolic stability in liver microsomes; format: in vitro ADME, cynomolgus monkey; conditions: pH 7.4, monkey liver microsomes; for half-life at 1 µM: read-out: T½
Description: According to standard methods conventional in the art for in vitro metabolic stability studies, for example those protocols described in Kems, Edward H. and Di Li (2008). Drug-like Properties: Concepts. Structure Design and Methods: from ADME to Toxicity Optimization. San Diego: Academic Press; Di, Li et al., Optimization of a Higher Throughput Microsomal Stability Screening Assay for Profiling Drug Discovery Candidates, J. Biomol. Screen. 2003, 8(4), 453., the metabolic stability test in liver microsomes of the present compound was performed analogously as follows.
The in vitro metabolic stability of the compound in 5 species (mouse, rat, dog, monkey, and human) was evaluated by liver microsomal stability test. 0.1M potassium phosphate buffer solution (pH 7.4, containing 1.0 mM EDTA) was prepared. The test compound and the control compound were prepared into a 10 mM DMSO solution, and then 10 μL of the 10 mM DMSO compound solution was added to 190 μL of acetonitrile to prepare a 500 μM compound solution. Liver microsomes (Sekisui XenoTech, LLC., human liver microsomes, cat. #H0610; Beagle dog liver microsomes, cat. #D1000; cynomolgus monkey liver microsomes, cat. #P2073; rat liver microsomes, cat. #R1073; mouse Liver microsomes, cat. #M1000) were taken and slowly melted on ice, then 18.75 μL of the liver microsome solution (20 mg/mL) and 1.5 μL of 500 μM compound solution were added to 479.75 μL of 0.1M potassium phosphate buffer solution to prepare a 0.75 mg/mL liver microsome working solution with a concentration of 1.5 μM compound. 6 mM NADPH (SIGMA, cat. #V900362) aqueous solution was prepared. 0.2 mL 2 mg/mL internal standard stock solution (imipramine solution in acetonitrile) was added to 1000 mL acetonitrile (SIGMA, cat. #271004) to prepare the reaction stop solution and stored at 4° C.
Six deep-well plates were labeled as T0, T5, T15, T30, T45 and NCF60 (negative control, without NADPH). 30 μL of […] control compound or test compound solution in 0.75 mg/mL liver microsome working solution was added to each well of the corresponding plates. After being sealed with film, all the microplates were placed in a 37° C. water bath to preheat for 5 minutes, and 6 mM NADPH solution was placed in a 37° C. water bath to preheat for 5 minutes. Then 15 μL of NADPH solution was added to each cell successively in reverse time order, that is, first adding the T45 plate, 15 minutes later the T30 plate, 15 minutes later again the T15 plate, and 10 minutes later gain the T5 plate. […]
The natural logarithm of the residue percentage at each time point was subjected to linearly regression as a factor of incubation time to obtain Slope k, and then the liver microsome clearance rate (CLint^mic) and in vitro half-life (T½) were calculated according to the following formula: […]

[2] = Solubility in simulated fluids and PBS; format: physicochemical; conditions: for solubility: thermodynamic from solid, 25° C.
Description: According to the well-known standard methods conventional in the art for solubility determination, for example those described in Kems, Edward H. and Di Li (2008). Drug-like Properties: Concepts, Structure Design and Methods: from ADME to Toxicity Optimization. San Diego: Academic Press), the solubility properties of the compounds of the present disclosure were investigated as follows, in testing systems of FaSSGF (pH 1.6) (Biorelevant, Fasted State Simulated gastric fluids), FeSSIF (pH 5.8) (Biorelevant, Fed State Simulated Intestinal Fluid), FaSSIF (pH 6.5) (Biorelevant, Fasted State Simulated Intestinal Fluid) and PBS buffer (Hyclone, Cat No. SH30256.01B).
Accurately weighed ˜1 mg of test compound dry powder was charged into a glass bottle, and added an appropriate volume of each of the above test system solutions, to prepare a 4 mg/mL working solution. The sample bottle was placed on a shaker at room temperature (25° C.) and shook at 1000 rpm for 1 hour, then stood overnight for equilibrium. All samples were centrifuged at 12000 rpm at 25° C. for 10 minutes. Solutions of different concentrations for each compound were prepared in DMSO as the standard solutions. 580 μL of 20% (v/v) acetonitrile aqueous solution (containing 40 ng/mL tolbutamide as internal standard) was added into each well of three microplates, and mixed uniformly. 20 μL of 4 mg/mL working solution or standard solution was added to the wells of the first microplate and mixed uniformly, from which 20 μL was taken and added to the corresponding well of the second microplate, and mixed uniformly, from which again 20 μL was taken from each well and added to the corresponding wells of the third microplate, and mixed uniformly. Mass spectrometry was adopted to analyze the samples (LC-MS/MS-014, API4000), a standard curve was developed based on the concentrations of the standard solutions, and the solubility of the test compound was calculated.

[3] = PBS buffer, aqueous buffer, PBS pH 7.4, read-out: Solubility PBS (pH 7.4)
[4] = fassgf or other biorelevant, FaSSGF pH 1.6, read-out: Solubility FaSSGF (pH 1.6)
[5] = FaSSIF pH 6.5, read-out: Solubility FaSSIF (pH 6.5)
[6] = FeSSIF pH 5.8, read-out: Solubility FeSSEF (pH 5.8)

| CLint scaled at 1 µM [1] [mL/min/kg] | half-life at 1 µM [1] [min] | solubility [2, 3] [µg/mL] | solubility [2, 4] [µg/mL] | solubility [2, 5] [µg/mL] | solubility [2, 6] [µg/mL] | SMILES | solubility compared with Merestinib ([2]; statement in words) |
| --- | --- | --- | --- | --- | --- | --- | --- |
| 81 | 25 | 0.02 (≈ 0.0362 µM) | 19.3 (≈ 34.9 µM) | 3.07 (≈ 5.56 µM) | 33.7 (≈ 61 µM) | Cc1ccc(C(=O)Nc2ccc(Oc3cc4cnn(C)c4cc3-c3cn[nH]c3)c(F)c2)c(=O)n1-c1ccc(F)cc1 [Merestinib, reference compound] | – |
| 36.2 | 56 | 0.01 (≈ 0.0176 µM) | 27.7 (≈ 48.7 µM) | 5.47 (≈ 9.62 µM) | 53.3 (≈ 93.7 µM) | COc1ccc(C(=O)Nc2ccc(Oc3cc4cnn(C)c4cc3-c3cn[nH]c3)c(F)c2)c(=O)n1-c1ccc(F)cc1 [Example 12, N-(3-fluoro-4-(1-methyl-6-(1H-pyrazol-4-yl)-1H-indazol-5-yloxy)phenyl)-1-(4-fluorophenyl)-6-methoxy-2-oxo-1,2-dihydropyridine-3-carboxamide] | significantly improved solubility as compared with Merestinib |
